In US11053204B2, “Pyrimidinyloxy benzene derivatives as herbicides” (FMC Corporation, priority 2015, dated 2021):

How the values were obtained:
Assay type in all cases: in vivo
[1] = tested on: Italian ryegrass (Lolium multiflorum); experiment: Test A preemergence, visual injury rating; conditions: 0 to 100 scale (0 no effect, 100 complete control)
Description: (§1) Seeds of plant species selected from barnyardgrass (Echinochloa crus-galli), kochia (Kochia scoparia), ragweed (common ragweed, Ambrosia elatior), Italian ryegrass (Lolium multiflorum), large (Lg) crabgrass (Digitaria sanguinalis), giant foxtail (Setaria faberii), morningglory (Ipomoea spp.), pigweed (Amaranthus retroflexus), velvetleaf (Abutilon theophrasti), wheat (Triticum aestivum), and corn (Zea mays) were planted into a blend of loam soil and sand and treated preemergence with a directed soil spray using test chemicals formulated in a non-phytotoxic solvent mixture which included a surfactant.
(§2) At the same time, plants selected from these crop and weed species and also blackgrass (Alopecurus myosuroides), and galium (catchweed bedstraw, Galium aparine) were planted in pots containing the same blend of loam soil and sand and treated with postemergence applications of test chemicals formulated in the same manner. Plants ranged in height from 2 to 10 cm and were in the one- to two-leaf stage for the postemergence treatment. Treated plants and untreated controls were maintained in a greenhouse for approximately 10 days, after which time all treated plants were compared to untreated controls and visually evaluated for injury. Plant response ratings, summarized in Table A, are based on a 0 to 100 scale where 0 is no effect and 100 is complete control. A dash (-) response means no test result.

[2] = tested on: barnyardgrass (Echinochloa crus-galli); experiment: Test A preemergence, visual injury rating; conditions: 0 to 100 scale (0 no effect, 100 complete control)
Description: as §1, §2

[3] = tested on: giant foxtail (Setaria faberii); experiment: Test A preemergence, visual injury rating; conditions: 0 to 100 scale (0 no effect, 100 complete control)
Description: as §1, §2

kochia (Kochia scoparia) [4] = experiment: Test A preemergence, visual injury rating; conditions: 0 to 100 scale (0 no effect, 100 complete control)
Description: as §1, §2

[5] = tested on: pigweed (Amaranthus retroflexus); experiment: Test A preemergence, visual injury rating; conditions: 0 to 100 scale (0 no effect, 100 complete control)
Description: as §1, §2

[6] = tested on: ragweed (common ragweed, Ambrosia elatior); experiment: Test A preemergence, visual injury rating; conditions: 0 to 100 scale (0 no effect, 100 complete control)
Description: as §1, §2

[7] = tested on: Italian ryegrass (Lolium multiflorum); experiment: Test A postemergence, visual injury rating; conditions: 0 is no effect, 100 is complete control
Description: as §1, §2

[8] = tested on: barnyardgrass (Echinochloa crus-galli); experiment: Test A postemergence, visual injury rating; conditions: 0 is no effect, 100 is complete control
Description: as §1, §2

[9] = tested on: blackgrass (Alopecurus myosuroides); experiment: Test A postemergence, visual injury rating; conditions: 0 is no effect, 100 is complete control
Description: as §1, §2

corn (Zea mays) = experiment: Test A postemergence, visual injury rating; conditions: 0 is no effect, 100 is complete control
Description: as §1, §2

[10] = tested on: galium (catchweed bedstraw, Galium aparine); experiment: Test A postemergence, visual injury rating; conditions: 0 is no effect, 100 is complete control
Description: as §1, §2

[11] = tested on: giant foxtail (Setaria faberii); experiment: Test A postemergence, visual injury rating; conditions: 0 is no effect, 100 is complete control
Description: as §1, §2

kochia (Kochia scoparia) [12] = experiment: Test A postemergence, visual injury rating; conditions: 0 is no effect, 100 is complete control
Description: as §1, §2

[13] = tested on: pigweed (Amaranthus retroflexus); experiment: Test A postemergence, visual injury rating; conditions: 0 is no effect, 100 is complete control
Description: as §1, §2

[14] = tested on: ragweed (common ragweed, Ambrosia elatior); experiment: Test A postemergence, visual injury rating; conditions: 0 is no effect, 100 is complete control
Description: as §1, §2

[15] = tested on: wheat (Triticum aestivum); experiment: Test A postemergence, visual injury rating; conditions: 0 is no effect, 100 is complete control
Description: as §1, §2

SMILES | Ryegrass, Italian plant response rating ([1]; 500 g ai/ha) | Barnyardgrass plant response rating ([2]; 500 g ai/ha) | Foxtail, Giant plant response rating ([3]; 500 g ai/ha) | Kochia plant response rating (kochia (Kochia scoparia) [4]; 500 g ai/ha) | Pigweed plant response rating ([5]; 500 g ai/ha) | Ragweed plant response rating ([6]; 500 g ai/ha) | Ryegrass, Italian plant response rating (0 to 100 scale) ([7]; 500 g ai/ha) | Barnyardgrass plant response rating (0 to 100 scale) ([8]; 500 g ai/ha) | Blackgrass plant response rating (0 to 100 scale) ([9]; 500 g ai/ha) | Corn plant response rating (0 to 100 scale) (corn (Zea mays); 500 g ai/ha) | Galium plant response rating (0 to 100 scale) ([10]; 500 g ai/ha) | Foxtail, Giant plant response rating (0 to 100 scale) ([11]; 500 g ai/ha) | Kochia plant response rating (0 to 100 scale) (kochia (Kochia scoparia) [12]; 500 g ai/ha) | Pigweed plant response rating (0 to 100 scale) ([13]; 500 g ai/ha) | Ragweed plant response rating (0 to 100 scale) ([14]; 500 g ai/ha) | Wheat plant response rating (0 to 100 scale) ([15]; 500 g ai/ha) | Ryegrass, Italian plant response rating ([1]; 125 g ai/ha) | Barnyardgrass plant response rating ([2]; 125 g ai/ha) | Foxtail, Giant plant response rating ([3]; 125 g ai/ha) | Kochia plant response rating (kochia (Kochia scoparia) [4]; 125 g ai/ha) | other results
CC(C)(C)OC(=O)c1c(Br)cccc1Oc1ncc(Cl)cn1 [Compound 14] | 20 | 60 | 100 | 70 | 100 | 10 | 70 | 40 | 70 | 10 | 100 | 60 | 70 | 100 | 0 | 40 |  |  |  |  | 
O=C(OCCC(F)(F)F)c1ccccc1Oc1ncc(Cl)cn1 [Compound 17] | 0 | 0 | 0 | 0 | 10 | 0 | 0 | 0 | 0 | 20 | 0 | 0 | 0 | 40 | 0 | 0 | 0 | 0 | 0 | 0 | Pigweed plant response rating ([5]; 125 g ai/ha): 0; Ragweed plant response rating ([6]; 125 g ai/ha): 0; Ryegrass, Italian plant response rating (0 to 100 scale) ([7]; 125 g ai/ha): 0; Barnyardgrass plant response rating (0 to 100 scale) ([8]; 125 g ai/ha): 0; Blackgrass plant response rating (0 to 100 scale) ([9]; 125 g ai/ha): 0; Corn plant response rating (0 to 100 scale) (corn (Zea mays); 125 g ai/ha): 0; Galium plant response rating (0 to 100 scale) ([10]; 125 g ai/ha): 0; Foxtail, Giant plant response rating (0 to 100 scale) ([11]; 125 g ai/ha): 0; Kochia plant response rating (0 to 100 scale) (kochia (Kochia scoparia) [12]; 125 g ai/ha): 0; Pigweed plant response rating (0 to 100 scale) ([13]; 125 g ai/ha): 20; Ragweed plant response rating (0 to 100 scale) ([14]; 125 g ai/ha): 0; Wheat plant response rating (0 to 100 scale) ([15]; 125 g ai/ha): 0
N#Cc1cnc(Oc2cccc(Br)c2C(=O)OCC(F)(F)F)nc1 [Compound 31] | 0 | 0 | 0 | 0 | 0 | 0 | 0 | 0 | 0 | 0 | 0 | 0 | 0 | 0 | 0 | 0 | 0 | 0 | 0 | 0 | Pigweed plant response rating ([5]; 125 g ai/ha): 0; Ragweed plant response rating ([6]; 125 g ai/ha): 0; Ryegrass, Italian plant response rating (0 to 100 scale) ([7]; 125 g ai/ha): 0; Barnyardgrass plant response rating (0 to 100 scale) ([8]; 125 g ai/ha): 0; Blackgrass plant response rating (0 to 100 scale) ([9]; 125 g ai/ha): 0; Corn plant response rating (0 to 100 scale) (corn (Zea mays); 125 g ai/ha): 0; Galium plant response rating (0 to 100 scale) ([10]; 125 g ai/ha): 0; Foxtail, Giant plant response rating (0 to 100 scale) ([11]; 125 g ai/ha): 0; Kochia plant response rating (0 to 100 scale) (kochia (Kochia scoparia) [12]; 125 g ai/ha): 0; Pigweed plant response rating (0 to 100 scale) ([13]; 125 g ai/ha): 0; Ragweed plant response rating (0 to 100 scale) ([14]; 125 g ai/ha): 0; Wheat plant response rating (0 to 100 scale) ([15]; 125 g ai/ha): 0
N#Cc1cccc(Oc2ncc(Cl)cn2)c1C(=O)OCC(F)(F)F [Compound 32] | 0 | 0 | 0 | 0 | 30 | 0 | 0 | 0 | 0 | 0 | 0 | 0 | 0 | 30 | 0 | 0 | 0 | 0 | 0 | 0 | Pigweed plant response rating ([5]; 125 g ai/ha): 30; Ragweed plant response rating ([6]; 125 g ai/ha): 0; Ryegrass, Italian plant response rating (0 to 100 scale) ([7]; 125 g ai/ha): 0; Barnyardgrass plant response rating (0 to 100 scale) ([8]; 125 g ai/ha): 0; Blackgrass plant response rating (0 to 100 scale) ([9]; 125 g ai/ha): 0; Corn plant response rating (0 to 100 scale) (corn (Zea mays); 125 g ai/ha): 0; Galium plant response rating (0 to 100 scale) ([10]; 125 g ai/ha): 0; Foxtail, Giant plant response rating (0 to 100 scale) ([11]; 125 g ai/ha): 0; Kochia plant response rating (0 to 100 scale) (kochia (Kochia scoparia) [12]; 125 g ai/ha): 0; Pigweed plant response rating (0 to 100 scale) ([13]; 125 g ai/ha): 20; Ragweed plant response rating (0 to 100 scale) ([14]; 125 g ai/ha): 0; Wheat plant response rating (0 to 100 scale) ([15]; 125 g ai/ha): 0
O=C(OCC(F)(F)F)c1c(Br)cccc1Oc1ncc(Br)cn1 [Compound 34] | 0 | 90 | 100 | 40 | 100 | 0 | 0 | 20 | 70 | 30 | 100 | 80 | 90 | 100 | 0 | 0 | 0 | 0 | 70 | 20 | Pigweed plant response rating ([5]; 125 g ai/ha): 40; Ragweed plant response rating ([6]; 125 g ai/ha): 0; Ryegrass, Italian plant response rating (0 to 100 scale) ([7]; 125 g ai/ha): 0; Barnyardgrass plant response rating (0 to 100 scale) ([8]; 125 g ai/ha): 0; Blackgrass plant response rating (0 to 100 scale) ([9]; 125 g ai/ha): 10; Corn plant response rating (0 to 100 scale) (corn (Zea mays); 125 g ai/ha): 30; Galium plant response rating (0 to 100 scale) ([10]; 125 g ai/ha): 50; Foxtail, Giant plant response rating (0 to 100 scale) ([11]; 125 g ai/ha): 20; Kochia plant response rating (0 to 100 scale) (kochia (Kochia scoparia) [12]; 125 g ai/ha): 60; Pigweed plant response rating (0 to 100 scale) ([13]; 125 g ai/ha): 100; Ragweed plant response rating (0 to 100 scale) ([14]; 125 g ai/ha): 0; Wheat plant response rating (0 to 100 scale) ([15]; 125 g ai/ha): 0
N#CCOC(=O)c1c(C#N)cccc1Oc1ncc(Cl)cn1 [Compound 39] | 0 | 0 | 0 | 0 | 0 | 0 | 0 | 0 | 0 | 0 | 0 | 0 | 0 | 0 | 0 | 0 | 0 | 0 | 0 | 0 | Pigweed plant response rating ([5]; 125 g ai/ha): 0; Ragweed plant response rating ([6]; 125 g ai/ha): 0; Ryegrass, Italian plant response rating (0 to 100 scale) ([7]; 125 g ai/ha): 0; Barnyardgrass plant response rating (0 to 100 scale) ([8]; 125 g ai/ha): 0; Blackgrass plant response rating (0 to 100 scale) ([9]; 125 g ai/ha): 0; Corn plant response rating (0 to 100 scale) (corn (Zea mays); 125 g ai/ha): 0; Galium plant response rating (0 to 100 scale) ([10]; 125 g ai/ha): 0; Foxtail, Giant plant response rating (0 to 100 scale) ([11]; 125 g ai/ha): 0; Kochia plant response rating (0 to 100 scale) (kochia (Kochia scoparia) [12]; 125 g ai/ha): 0; Pigweed plant response rating (0 to 100 scale) ([13]; 125 g ai/ha): 0; Ragweed plant response rating (0 to 100 scale) ([14]; 125 g ai/ha): 0; Wheat plant response rating (0 to 100 scale) ([15]; 125 g ai/ha): 0
